Assay [1] concerns the target T1, Nuclear receptor ROR-beta (Homo sapiens, UniProt Q92753).
T1 sequence (Q92753 whole entry): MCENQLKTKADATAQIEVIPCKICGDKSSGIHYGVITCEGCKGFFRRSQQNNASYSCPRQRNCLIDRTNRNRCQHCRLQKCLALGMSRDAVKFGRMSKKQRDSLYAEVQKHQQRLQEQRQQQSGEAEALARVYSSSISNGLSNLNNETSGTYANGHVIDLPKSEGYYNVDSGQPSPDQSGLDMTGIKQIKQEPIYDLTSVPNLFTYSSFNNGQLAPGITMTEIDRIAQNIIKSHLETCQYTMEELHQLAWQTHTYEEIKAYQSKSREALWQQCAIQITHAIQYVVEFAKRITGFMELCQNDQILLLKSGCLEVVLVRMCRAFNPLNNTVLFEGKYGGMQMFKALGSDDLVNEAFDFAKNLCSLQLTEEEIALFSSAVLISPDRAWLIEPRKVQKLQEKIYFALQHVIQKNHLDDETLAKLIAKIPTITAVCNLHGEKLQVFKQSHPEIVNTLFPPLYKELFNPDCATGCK
Description: Inverse agonist activity at human GAL4-fused RORb expressed in HEK293 cells after 5 hrs by luciferase reporter gene based transcriptional assay. Type of assay: cell-based. For orientation: Reporter assays use an easily measured gene product as a stand-in for the process of interest.

Assay [2] addresses T2, Nuclear receptor ROR-alpha (Homo sapiens, UniProt P35398).
T2 sequence (P35398 whole entry): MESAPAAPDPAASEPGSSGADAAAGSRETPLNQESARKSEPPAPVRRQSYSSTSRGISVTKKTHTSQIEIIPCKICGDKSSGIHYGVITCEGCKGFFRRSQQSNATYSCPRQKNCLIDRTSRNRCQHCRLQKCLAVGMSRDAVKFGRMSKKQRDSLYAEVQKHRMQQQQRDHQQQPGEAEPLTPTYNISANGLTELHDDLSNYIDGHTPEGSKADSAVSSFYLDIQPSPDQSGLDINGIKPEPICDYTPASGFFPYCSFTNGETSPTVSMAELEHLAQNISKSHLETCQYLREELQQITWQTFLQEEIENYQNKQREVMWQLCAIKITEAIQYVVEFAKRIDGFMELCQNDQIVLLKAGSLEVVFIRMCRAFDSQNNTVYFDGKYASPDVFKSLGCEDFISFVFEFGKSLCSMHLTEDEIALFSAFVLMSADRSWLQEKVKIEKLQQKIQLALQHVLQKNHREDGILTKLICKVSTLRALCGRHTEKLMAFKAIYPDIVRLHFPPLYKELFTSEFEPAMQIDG
Briefly: Inverse agonist activity at human GAL4-fused RORa expressed in HEK293 cells after 5 hrs by luciferase reporter gene based transcriptional assay. Type of assay: cell-based.

The target of assay [3] is T3, Oxysterols receptor LXR-beta (Homo sapiens, UniProt P55055).
T3 sequence (P55055 whole entry): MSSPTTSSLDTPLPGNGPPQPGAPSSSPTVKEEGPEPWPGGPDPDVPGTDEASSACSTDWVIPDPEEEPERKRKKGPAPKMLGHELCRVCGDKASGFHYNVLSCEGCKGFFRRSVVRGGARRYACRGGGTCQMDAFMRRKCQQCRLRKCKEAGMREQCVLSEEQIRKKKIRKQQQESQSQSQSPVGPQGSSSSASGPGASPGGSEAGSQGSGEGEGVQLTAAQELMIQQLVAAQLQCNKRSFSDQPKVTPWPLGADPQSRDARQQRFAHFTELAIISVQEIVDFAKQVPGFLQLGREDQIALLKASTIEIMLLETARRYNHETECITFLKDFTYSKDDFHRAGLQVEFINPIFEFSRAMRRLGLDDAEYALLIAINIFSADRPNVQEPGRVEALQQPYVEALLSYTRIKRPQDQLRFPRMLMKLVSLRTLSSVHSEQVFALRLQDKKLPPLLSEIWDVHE
Briefly: Inverse agonist activity at human GAL4-fused LXRbeta expressed in HEK293 cells assessed as inhibition of T0901317-induced transcriptional activity after 5 hrs by luciferase reporter gene assay. Type of assay: cell-based.

In assay [4] the target is T4, Oxysterols receptor LXR-alpha (Homo sapiens, UniProt Q13133).
T4 sequence (Q13133 whole entry): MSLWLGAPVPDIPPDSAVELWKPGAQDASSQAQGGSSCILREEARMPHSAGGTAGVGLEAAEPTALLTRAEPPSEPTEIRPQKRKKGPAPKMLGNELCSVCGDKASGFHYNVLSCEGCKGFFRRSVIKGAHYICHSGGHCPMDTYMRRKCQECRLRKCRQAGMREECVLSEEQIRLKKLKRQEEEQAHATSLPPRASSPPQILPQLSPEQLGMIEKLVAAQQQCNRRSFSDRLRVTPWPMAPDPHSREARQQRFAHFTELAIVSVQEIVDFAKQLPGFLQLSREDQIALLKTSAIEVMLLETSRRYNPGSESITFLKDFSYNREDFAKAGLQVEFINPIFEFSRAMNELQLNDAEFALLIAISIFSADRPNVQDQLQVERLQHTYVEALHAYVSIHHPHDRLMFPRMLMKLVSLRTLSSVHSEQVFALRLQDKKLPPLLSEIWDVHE
Description: Inverse agonist activity at human GAL4-fused LXRalpha expressed in HEK293 cells assessed as inhibition of T0901317-induced transcriptional activity after 5 hrs by luciferase reporter gene assay. Type of assay: cell-based.

Assay [5] deals with T5, Nuclear receptor ROR-gamma (Homo sapiens, UniProt P51449).
T5 sequence (P51449 whole entry): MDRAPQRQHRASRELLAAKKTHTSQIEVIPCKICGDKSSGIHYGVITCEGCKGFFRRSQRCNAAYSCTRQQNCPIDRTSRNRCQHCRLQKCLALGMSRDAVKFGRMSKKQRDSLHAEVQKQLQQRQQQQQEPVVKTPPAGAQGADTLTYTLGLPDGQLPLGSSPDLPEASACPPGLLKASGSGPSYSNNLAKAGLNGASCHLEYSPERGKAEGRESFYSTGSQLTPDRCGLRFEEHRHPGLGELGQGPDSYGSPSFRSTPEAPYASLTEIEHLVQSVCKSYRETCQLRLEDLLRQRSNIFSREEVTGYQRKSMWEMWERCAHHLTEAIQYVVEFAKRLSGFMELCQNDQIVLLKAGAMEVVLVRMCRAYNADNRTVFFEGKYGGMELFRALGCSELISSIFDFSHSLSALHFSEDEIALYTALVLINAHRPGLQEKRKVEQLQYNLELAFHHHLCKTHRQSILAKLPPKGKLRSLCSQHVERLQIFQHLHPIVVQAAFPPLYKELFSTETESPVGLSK
Briefly: Displacement of [3H2]25-hydroxycholesterol from human RORc-LBD after 3 hrs by scintillation counting.

Assay [6] has as its target T5, Nuclear receptor ROR-gamma. Description: Inverse agonist activity at an N-terminal 6xHis-GST-tag human RORc-LBD assessed as inhibition of recruitment of the SRC1 co-activator peptide after 3 hrs by time-resolved FRET assay. Type of assay: functional.

In the case of `CC(C)CN(Cc1ccc(-c2cccc(S(C)(=O)=O)c2)s1)S(=O)(=O)Cc1ccccc1`, the EC50 (in general, the concentration giving half of the maximal effect) in assay [1] was 5 µM; in assay [2] it was 4.2 µM.

As to `CC(C)CN(Cc1ccc(-c2ccc(S(C)(=O)=O)cc2)s1)S(=O)(=O)Cc1ccccc1`, the EC50 in assay [3] stood at 3.9 µM; in assay [4] it was 3.7 µM; in assay [1] it was 2.2 µM; in assay [2], 2.8 µM.

With `CC(C)CN(Cc1ccc(-c2ccc(C#N)nc2)s1)S(=O)(=O)Cc1ccccc1`, the IC50 (commonly the concentration needed to halve the response being measured) in assay [5] was greater than 10 µM.

As to `CC(C)CN(Cc1cnc(-c2ccc(S(C)(=O)=O)cc2)s1)S(=O)(=O)Cc1ccccc1`, the EC50 in assay [6] is greater than 10 µM. Also, the IC50 in assay [5] is greater than 10 µM.

In the case of `CC(C)CN(Cc1cccc(-c2ccc(S(C)(=O)=O)cc2)c1)S(=O)(=O)Cc1ccccc1`, the concentration for a half-maximal effect (EC50) in assay [6] is greater than 10 µM. Moreover, the IC50 in assay [5] was greater than 10 µM.

For the molecule `CC(C)CN(Cc1ccc(-c2ccc(NS(C)(=O)=O)cc2)cc1)S(=O)(=O)Cc1ccccc1`, the EC50 in assay [3] came to 3.8 µM; in assay [4], 3.6 µM; in assay [1], 3.7 µM; in assay [2] it was 3.8 µM.

Turning to `CC(C)CN(Cc1ccc(-c2ccc(C(N)=O)cc2)cc1)S(=O)(=O)Cc1ccccc1`, the EC50 in assay [3], in assay [4], in assay [1] and in assay [2] was greater than 10 µM in each case.

(Values after ChEMBL document CHEMBL3259641, “Identification of tertiary sulfonamides as RORc inverse agonists” (Bioorg Med Chem Lett, 2014).)
